Results on 57 molecules are retold here after ChEMBL document CHEMBL5393443, “Novel inhibitors of insulin-like growth factor 2 mrna binding proteins” (2022).

The subject of the test is ES-2. The experiment in a line: Cytotoxicity against human ES2 cells after 72 hrs by InuCyte live cell imaging analysis. The test is classed as functional, cell-based. Conditions: ES-2, 72 h.

Broadly, the EC50 is the concentration that produces a half-maximal response. Low values mean higher potency in that assay, high ones lower potency in that assay. In the case of `Cc1cc2c(O)nc(Cc3ccccc3)nc2s1`, the EC50 was determined as 4840 nM.

Molecule `NC(=O)c1ccsc1NC(=O)c1cccs1` showed an EC50 of 3230 nM. The EC50 values of the last two molecules are within 1.5-fold of each other.

In turn, `NC(=O)c1ccccc1NC(=O)CN1CCN(Cc2ccc(Cl)cc2Cl)CC1` showed an EC50 of 993 nM.

In the case of `NC(=O)c1ccccc1NC(=O)c1ccccc1`, the midpoint of the response, the EC50, lay at 10500 nM. This EC50 is about 11-fold higher than that of the molecule before.

The molecule `NC(=O)c1cc(Cc2ccccc2)sc1NC(=O)CN1CCN(Cc2ccccc2Cl)CC1` yielded an EC50 of 7110 nM.

For the molecule `COc1ccc(C(=O)Nc2sc(Cc3ccccc3)cc2C(N)=O)cc1`, a half-maximal effect (EC50) was put at 1940 nM.

`COc1ccc(C(=O)Nc2sc(C(C)C)cc2C(N)=O)cc1COc1ccc(Br)cc1` had an EC50 of 8340 nM.

With `CC(Sc1nnc(NC(=O)c2ccccc2)s1)c1nc2ccccc2c(=O)[nH]1` (configuration not stated), the EC50 was found to be 4050 nM. This EC50 is about 2.1-fold lower than that of the molecule before.

With `NC(=O)c1cc(Cc2ccccc2)sc1NC(=O)c1ccc2c(c1)OCO2`, a half-maximal response (EC50) required 1300 nM.

`NC(=O)c1ccccc1NC(=O)c1ccc(Cl)c(Cl)c1` showed an EC50 of 1880 nM.

With `COc1cc(/C=C/C(=O)Nc2ccccc2C(N)=O)ccc1OCc1ccccc1`, the response was half-maximal at 1880 nM (EC50). This lies in the single-digit micromolar range.

The molecule `NC(=O)c1cc(Cc2ccccc2)sc1NC(=O)c1ccccc1` displayed an EC50 of 2270 nM.

Molecule `COc1ccc(C(=O)Nc2ccccc2C(N)=O)cc1COc1ccccc1Cl` showed a concentration giving a half-maximal response (EC50) of 1100 nM.

`NC(=O)c1ccsc1NC(=O)CN1CCN(Cc2ccc(Cl)c(Cl)c2)CC1` registered an EC50 of 781 nM.

On to `NC(=O)c1cc(Cc2ccccc2)sc1NC(=O)Cc1cccs1`, for which the EC50 stood at 1160 nM.

Molecule `CC(C)c1cc(C(N)=O)c(NC(=O)Cc2ccc(Cl)c(Cl)c2)s1` registered an EC50 of 2450 nM. This EC50 lies about 2.1-fold higher than the previous one.

In turn, `NC(=O)c1ccccc1NC(=O)CN1CCN(Cc2c(Cl)cccc2Cl)CC1` showed an EC50 of 6460 nM.

As for `NC(=O)c1cc(Cc2ccccc2)sc1NC(=O)c1cccs1`, the midpoint of the response, the EC50, lay at 671 nM.

On to `COc1cc(-c2nc3ccccc3c(=O)[nH]2)ccc1OCc1ccccc1[N+](=O)[O-]`, for which the midpoint of the response, the EC50, lay at 476 nM.

With `NC(=O)c1ccccc1OCC(=O)c1ccc(Br)cc1`, the EC50 came to 2950 nM.

Molecule `COc1ccc(C(=O)Nc2sc(Cc3ccccc3)cc2C(N)=O)cc1COc1c(Cl)cccc1Cl` returned an EC50 of 2600 nM.

Molecule `NC(=O)c1ccccc1NC(=O)c1cc(Cl)cc(Cl)c1` came in with an EC50 of 5140 nM.

The molecule `NC(=O)c1c(NC(=O)c2ccc(Cl)s2)sc2c1CCCC2` yielded a half-maximal effective concentration (EC50) of 1470 nM.

For the molecule `O=c1[nH]c(-c2ccc(OCc3ccccc3F)cc2)nc2ccccc12`, the EC50 came to 250 nM.

Regarding `NC(=O)c1ccccc1NC(=O)c1cccc(COc2cccc(Cl)c2)c1`, a half-maximal response (EC50) required 675 nM.

Turning to `COc1ccc(C(=O)Nc2sc(Cc3ccccc3)cc2C(N)=O)cc1COc1ccccc1Cl`, the EC50 was 439 nM.

`COc1ccc(C(=O)Nc2sc(C(C)C)cc2C(N)=O)cc1COc1ccccc1Cl` came in with an EC50 of 2230 nM.

Consider `NC(=O)c1cc(Cc2ccccc2)sc1NC(=O)COc1ccccc1`, for which a half-maximal response (EC50) required 2420 nM.

Molecule `NC(=O)c1ccccc1NC(=O)C1CCN(C(=O)c2cccs2)CC1` gave an EC50 of 5180 nM.

The molecule `NC(=O)c1cc(Cc2ccccc2)sc1NC(=O)c1cccc(COc2ccc(Cl)cc2Cl)c1` showed an EC50 of 47 nM.

`CCc1cc(C(=O)Nc2sccc2C(N)=O)cs1` registered an EC50 of 2950 nM.

In turn, `COc1ccc(C(=O)Nc2ccccc2C(N)=O)cc1Cl` registered an EC50 of 5840 nM.

In turn, `NC(=O)c1ccccc1NC(=O)CN1CCN(Cc2ccc(Cl)c(Cl)c2)CC1` showed an EC50 of 1220 nM.

For `NC(=O)c1cc(Cc2ccccc2)sc1NC(=O)c1ccc(COc2ccc(Br)cc2)cc1`, the EC50 came to 1190 nM.

In turn, `COc1ccc(C(=O)Nc2sc(Cc3ccccc3)cc2C(N)=O)cc1OCc1ccccc1Cl` displayed an EC50 of 1100 nM.

In turn, `COc1ccc(C(=O)Nc2sc(Cc3ccccc3)cc2C(N)=O)cc1COc1cccc(Cl)c1` gave an EC50 of 355 nM.

For `CCc1c(C(=O)Nc2sc(Cc3ccccc3)cc2C(N)=O)csc1C`, it took 5060 nM to reach a half-maximal effect (EC50).

`NC(=O)c1ccccc1NC(=O)CN1CCN(Cc2ccc(Cl)cc2)CC1` came in with an EC50 of 2990 nM.

`NC(=O)c1cc(Cc2ccccc2)sc1NC(=O)c1ccc(COc2ccc(Cl)cc2Cl)s1` came in with an EC50 of 560 nM.

As to `COc1ccc(C(=O)Nc2sc(Cc3ccccc3)cc2C(N)=O)cc1COc1cccc(Cl)c1Cl`, it took 401 nM to reach a half-maximal effect (EC50).

In turn, `NC(=O)c1c(NC(=O)c2ccc(Cl)s2)sc2c1CCC2` yielded an EC50 of 6270 nM.

`NC(=O)c1cc(Cc2ccccc2)sc1NC(=O)c1ccc(Cl)s1` returned an EC50 of 1660 nM.

`COc1ccc(C(=O)Nc2sccc2C(N)=O)cc1COc1ccccc1Cl` had an EC50 of 1660 nM.

With `NC(=O)c1ccccc1NC(=O)CN1CCN(Cc2ccc(F)cc2Cl)CC1`, a half-maximal response (EC50) required 3170 nM.

With `NC(=O)c1ccccc1NC(=O)c1ccc(Cl)s1`, the EC50 is 2300 nM. This EC50 and that of the molecule before are within 1.5-fold of each other.

`COc1ccc(OCc2cc(-c3nc4sc(Cc5ccccc5)cc4c(=O)[nH]3)ccc2OC)cc1` gave an EC50 of 1120 nM.

In turn, `CCc1cc(C(=O)Nc2sc(Cc3ccccc3)cc2C(N)=O)cs1` returned an EC50 of 1900 nM.

Molecule `COc1ccc(C(=O)Nc2sc(Cc3ccccc3)cc2C(N)=O)cc1COc1ccc(Cl)cc1` yielded an EC50 of 1020 nM.

`NC(=O)c1cc(Cc2ccccc2)sc1NC(=O)CCc1ccccc1` showed an EC50 of 6210 nM. Against the preceding molecule, the EC50 is about 6.1-fold higher.

The molecule `CNC(=O)c1ccccc1NC(=O)c1cc(C)c(C)s1` registered an EC50 of 2830 nM.

On to `Cc1ccc(C(=O)Nc2ccccc2C(N)=O)s1`, for which the response was half-maximal at 2060 nM (EC50).

In turn, `NC(=O)c1ccccc1OCc1ccc(Cl)s1` came in with an EC50 of 5610 nM.

`COc1ccc(C(=O)Nc2sc(Cc3ccccc3)cc2C(N)=O)cc1COc1ccc(Cl)cc1Cl` came in with an EC50 of 293 nM. This EC50 is about 19-fold lower than that of the molecule before.

For `NC(=O)c1ccccc1NC(=O)CN1CCN(Cc2ccccc2Cl)CC1`, the EC50 was determined as 9580 nM. Compared with the last molecule, the EC50 is about 33-fold higher.

As for `NC(=O)c1cc(Cc2ccccc2)sc1NC(=O)CN1CCN(Cc2ccc(Cl)c(Cl)c2)CC1`, the 50% effective concentration (EC50) came to 4090 nM.

As for `NC(=O)c1cc(Cl)ccc1OCC(=O)c1ccc(Cl)s1`, the EC50 was determined as 1330 nM.

Turning to `Cc1ccc(C(=O)Nc2sc(Cc3ccccc3)cc2C(N)=O)o1`, a half-maximal response (EC50) required 1340 nM.
